Where “and” joins values, the source holds several entries; their conditions need not be identical. Equal values may be shown once. Where a name gives a salt, the structure may show the parent alone.

Common to all, as to type: in vivo
The test system of data set [1] is C57Bl/6 mice. Briefly: Somatic symptoms of opiate withdrawal after chronic UV exposure. To be noted: 2 mg/kg ip after 6 weeks of daily UV exposure; observed 25 minutes. The method, then: Mice that had undergone 6 weeks of daily UV exposure or mock exposure were injected (ip) with either 2 mg/kg naloxone or saline, and signs of opioid withdrawal were tabulated as described (Olson et al., 2006). […] Wet dog shake, teeth chatter, and bouts of grooming were measured as occurrence in each 15-second interval. Individual rearing events were counted. Number of fecal pellets at the end of the 25-minute interval was used to quantify diarrhea.

The subject of data set [2] is C57Bl/6 mice. Put plainly: Straub Tail measurement. The following applies: 10 mg/kg ip, scored 15 minutes after injection; day 23 of the UV exposure regimen. The method, then: Straub Tail measurement was performed as described (Bilbey et al., 1960). Scoring was on a scale of 0-2 according to the angle of elevation of the tail from the horizontal plane (0=tail relaxed and no elevation; 1=tail is rigid and elevated 1-10° from horizontal; 1.5=11-45° elevation and rigidity at the base of the tail; 2=46-90° elevation and rigidity at the base of the tail). At each time point, each mouse was scored every 10 seconds for 1 minute and the final score was the average of these six values. Mice undergoing the six-week UV exposure regimen or mock treatment were scored prior to the start of the regimen, once per week during the regimen, and once per week for 2 weeks following cessation of UV/mock treatment. On day 23 of the regimen, after weekly Straub Tail scoring, mice were injected (intraperitoneal (ip)) with either 10 mg/kg naloxone hydrochloride (Sigma, St. Louis, Mo.) or saline. Mice underwent Straub Tail scoring again 15 minutes following injection.
Exogenous opioids produce a dose-dependent, μ-opioid receptor-mediated contraction of the sacrococcygeus dorsalis muscle at the tail base in rodents, resulting in rigidity and elevation of the tail, a phenomenon called “Straub Tail” (Bilbey et al., 1960). […]

Data set [3] deals with C57Bl/6 mice. Put plainly: Conditioned place aversion testing. The method, then:
The apparatus used consisted of a box with black interior and dim lighting and a box with white interior and bright lighting connected by a smaller gray “neutral” box, and procedures were followed as described (Skoubis et al., 2001; Weitemier and Murphy, 2009). Mice that had undergone 6 weeks of daily UV exposure or mock exposure were tested for baseline place preferences prior to conditioning (10-minute testing time per mouse). Over the following 4 days, conditioning took place in which mice were either conditioned with naloxone (10 mg/kg ip injection) or saline (ip injection) in the black box, and all animals were conditioned with saline (ip injection) in the white box. Conditioning time in each box was 30 minutes following injection. For each animal there were four hours between conditioning in one box and conditioning in the other box. On the day following the final day of conditioning, place preferences were again tested (post-conditioning, 10-minute testing time per mouse).
Because the magnitude of the measured withdrawal symptoms, while significant, was smaller than that commonly observed with exogenously administered opioids (Broseta et al., 2002), we wished to determine whether these withdrawal signs would be sufficient to elicit alterations in pro-active/operant behavioral choices. We utilized a conditioned place aversion assay (Skoubis et al., 2001; Weitemier and Murphy, 2009) to test whether a specific environment, paired with naloxone administration during conditioning, would be avoided in favor of a different environment paired with a neutral stimulus (saline) during conditioning in chronically UV-irradiated animals. Due to the kinetics of the UV response we chose to use naloxone as it allowed an acute effect of limited duration. Naloxone induces conditioned place aversion in exogenous opioid-dependent mice (Glass et al., 2008; Kenny et al., 2006). Following conditioning, mice were permitted to move freely between the two environments and changes in place preference were measured, in the absence of additional naloxone or saline administration. […]

The test system of another data set is K14-e/e and e/e mice. Briefly: Naloxone-precipitated symptoms of opiate withdrawal in forskolin plus rolipram treated mice. To be noted: individual forskolin plus rolipram treated mice, naloxone 2 mg/kg; for Rearing: 25 min; for Jumping: events in 25 min; for Diarrhea: fecal pellets at 25 min; for Paw Tremor / Teeth Chatter / Wet Dog Shake / oming: occurrence per 15 sec interval over 25 min. The method, then: Female mice were treated with 40 μL of 20%-Forskolin extract daily and 40 μL of rolipram (Sigma) 20 μM in DMSO or vehicle control. Basal blood samples were collected at the beginning of each experiment. After treatment started, blood samples were collected once a week. After 4 weeks of continuous exposure to forskolin and rolipram or vehicle control, mice were injected with saline or naloxone and symptoms of opiate withdrawal were measured for 25 min post injection. Naloxone (St. Luis, Mo.) was diluted in saline at […] and was administrated to mice ˜200 μL, depending on the mass of each mouse (2 mg/kg). Symptoms assigned were wet dog shake (WDS), paw tremor, jumping, bouts of grooming, teeth chatter (TC), rearing and diarrhea. The occurrence in each 15 sec interval of WDS, paw tremor, bouts of grooming and teeth chatter (TC) was used to quantify these parameters. The number of fecal pellets and the individual jumping events at the end of 25 min were quantified for these two factors.
Finally, the functional significance of systemic β-endorphin elevations upon cAMP activation was tested by carrying out behavioral studies on forskolin plus rolipram treated mice.

Regarding `C=CCN1CC[C@]23c4c5ccc(O)c4O[C@H]2C(=O)CC[C@@]3(O)[C@H]1C5` [naloxone, naloxone hydrochloride], the “signs of opioid withdrawal” value in the data set on C57Bl/6 mice [1] is on record as “elicited many of the classic murine signs of opioid withdrawal”. Also, the “Straub Tail score” value in the data set with C57Bl/6 mice [2] was “reversed the Straub Tail phenotype”. For the same molecule, in the data set on C57Bl/6 mice [3] (10 mg/kg ip conditioning in the black box, chronically UV-irradiated mice), the conditioned place aversion entry is given as “sufficient to induce conditioned place aversion”. Moreover, the conditioned place aversion result in the data set on C57Bl/6 mice [3] (10 mg/kg ip conditioning in the black box, mock-treated (non-UV irradiated) control mice) is “had no effect on mock-treated (non-UV irradiated) control mice”. Also, in the data set with C57Bl/6 mice [3] (K14cre control mice vs p53fl/fl K14cre mice after 3 weeks of daily UV exposure), the conditioned place aversion entry was “significant naloxone conditioned place aversion”. Also, in the data set with K14-e/e and e/e mice (K14:e/e), the Rearing is given as 0 and the Jumping was determined as 0. In the data set with K14-e/e and e/e mice (K14:e/e, hydrochloride), the Diarrhea was 0 and 1; the “Paw Tremor” value was 0 and 2; the “Teeth Chatter” value is 80 and 107; the “Wet Dog Shake” value was 145 and 135. Further, the oming in the data set on K14-e/e and e/e mice (K14:e/e, hydrochloride) is 17 and 2. Further, in the data set on K14-e/e and e/e mice (e/e, hydrochloride), the Rearing was 0 and 18; the Diarrhea was 1 and 2; the “Paw Tremor” value was 4 and 34; the “Teeth Chatter” value is 116 and 75. Moreover, in the data set with K14-e/e and e/e mice (e/e, hydrochloride), the “Wet Dog Shake” value was 120 and 76; the oming was 13 and 19. Further, in the data set on K14-e/e and e/e mice (e/e), the Jumping is 0.

Source of the values: patent publication US20190083455A1, “METHODS AND COMPOSITIONS FOR THE MODULATION OF BETA-ENDORPHIN LEVELS” (The General Hospital Corporation, priority 2014, published 2019).
